According to ChEMBL document CHEMBL5108052, “Histone Deacetylase and Enhancer of Zeste Homologue 2 Dual Inhibitors Presenting a Synergistic Effect for the Treatment of Hematological Malignancies” (J Med Chem, 2022):

How the values were obtained:
[1] = Metabolic stability in human liver microsomes assessed as half life measured after 5 mins in presence of NADPH and UDPGA by LC-MS/MS analysis; type: ADME, Microsome
SU-DHL10 [2] = assay: cells; details: Homo sapiens, SU-DHL10, 72 h
HCT-116 [3] = assay: cells; details: Homo sapiens, HCT-116, 72 h
MV4-11 [4] = assay: cells; details: Homo sapiens, MV4-11, 72 h
[5] = Binding affinity to recombinant PRC2 complex (unknown origin) incubated for 90 seconds by surface plasmon resonance assay; parameters: species or system Homo sapiens
Homo sapiens = organism: Homo sapiens; details: time 90.0 sec
MDA-MB-231 [6] = assay: cells; details: Homo sapiens, MDA-MB-231, 72 h
HCT-116 [7] = details: time 72 hrs
HL-60 [8] = details: time 72 hrs
SU-DHL10 [9] = details: time 72 hrs
HL-60 [10] = assay: cells; details: Homo sapiens, HL-60, 72 h
MV4-11 [11] = assay: animal or person; type: functional, Homo sapiens; details: Mus musculus, MV4-11, 480 h, route ip, time 20 day, read-out: TGI
MV4-11 [12] = details: time 72 hrs
MDA-MB-231 [13] = details: time 72 hrs
[14] = target: T1, Protein deacetylase HDAC6 (Homo sapiens, UniProt Q9UBN7); assay: Inhibition of HDAC6 (unknown origin) preincubated for 5 mins followed by substrate addition and measured after 30 mins by multimode microplate reader analysis
T1 sequence (Q9UBN7 whole entry): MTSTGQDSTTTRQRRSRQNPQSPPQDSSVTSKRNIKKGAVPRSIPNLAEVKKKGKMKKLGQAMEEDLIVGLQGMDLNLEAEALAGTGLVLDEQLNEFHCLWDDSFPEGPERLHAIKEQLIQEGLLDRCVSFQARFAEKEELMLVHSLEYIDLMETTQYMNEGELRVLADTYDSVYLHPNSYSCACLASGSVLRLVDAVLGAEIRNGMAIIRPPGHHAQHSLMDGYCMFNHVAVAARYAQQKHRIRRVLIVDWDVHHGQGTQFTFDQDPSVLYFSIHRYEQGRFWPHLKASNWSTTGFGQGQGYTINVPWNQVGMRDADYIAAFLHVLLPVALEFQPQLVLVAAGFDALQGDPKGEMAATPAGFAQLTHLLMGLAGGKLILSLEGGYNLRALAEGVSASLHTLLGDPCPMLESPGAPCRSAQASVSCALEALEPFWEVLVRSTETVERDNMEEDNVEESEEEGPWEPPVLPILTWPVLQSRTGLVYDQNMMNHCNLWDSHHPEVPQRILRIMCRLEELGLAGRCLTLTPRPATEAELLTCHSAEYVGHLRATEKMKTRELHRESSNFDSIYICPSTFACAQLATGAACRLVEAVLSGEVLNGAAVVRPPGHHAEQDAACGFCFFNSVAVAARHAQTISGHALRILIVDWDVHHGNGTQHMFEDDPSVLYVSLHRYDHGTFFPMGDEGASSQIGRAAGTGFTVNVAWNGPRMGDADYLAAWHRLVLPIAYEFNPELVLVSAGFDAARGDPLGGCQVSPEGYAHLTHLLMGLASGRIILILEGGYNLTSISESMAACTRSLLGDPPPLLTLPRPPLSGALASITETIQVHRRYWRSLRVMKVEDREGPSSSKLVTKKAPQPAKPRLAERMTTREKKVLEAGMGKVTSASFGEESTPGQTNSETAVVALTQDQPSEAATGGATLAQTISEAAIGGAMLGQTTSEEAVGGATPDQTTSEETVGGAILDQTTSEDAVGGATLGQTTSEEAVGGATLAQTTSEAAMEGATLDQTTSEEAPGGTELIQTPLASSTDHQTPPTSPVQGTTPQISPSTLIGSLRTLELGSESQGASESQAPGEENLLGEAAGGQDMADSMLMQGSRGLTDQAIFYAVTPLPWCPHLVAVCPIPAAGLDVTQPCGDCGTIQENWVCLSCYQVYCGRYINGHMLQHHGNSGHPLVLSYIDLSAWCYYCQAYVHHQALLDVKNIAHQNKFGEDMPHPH

[15] = Binding affinity to recombinant PRC2 complex (unknown origin) assessed as dissociation rate constant incubated for 90 seconds by surface plasmon resonance assay; parameters: species or system Homo sapiens
Histone deacetylase 1 = Histone deacetylase 1 (Homo sapiens, UniProt Q13547); assay: Inhibition of HDAC1 (unknown origin) preincubated for 5 mins followed by substrate addition and measured after 30 mins by multimode microplate reader analysis
Histone deacetylase 1, sequence (Q13547 whole entry): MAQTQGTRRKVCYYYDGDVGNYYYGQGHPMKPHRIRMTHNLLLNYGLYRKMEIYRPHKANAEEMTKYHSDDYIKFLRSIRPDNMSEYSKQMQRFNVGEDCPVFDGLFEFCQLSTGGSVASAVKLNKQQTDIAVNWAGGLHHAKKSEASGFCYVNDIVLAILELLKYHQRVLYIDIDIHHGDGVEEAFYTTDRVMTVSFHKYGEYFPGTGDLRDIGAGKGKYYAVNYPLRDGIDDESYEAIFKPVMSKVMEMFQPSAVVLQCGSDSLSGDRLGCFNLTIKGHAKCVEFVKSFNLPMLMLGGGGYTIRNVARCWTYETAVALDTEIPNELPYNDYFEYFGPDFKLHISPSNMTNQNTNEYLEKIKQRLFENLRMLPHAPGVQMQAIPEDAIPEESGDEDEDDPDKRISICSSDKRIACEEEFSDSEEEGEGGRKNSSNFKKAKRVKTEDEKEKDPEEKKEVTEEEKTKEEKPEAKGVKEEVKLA

| Structure (SMILES) | half-life [1] [min] | IC50 (SU-DHL10 [2]) [µM] | IC50 (HCT-116 [3]) [µM] | IC50 (MV4-11 [4]) [µM] | Kd [5] [µM] | Ka (Homo sapiens) | IC50 (MDA-MB-231 [6]) [µM] | CI (HCT-116 [7]) | CI (HL-60 [8]) | CI (SU-DHL10 [9]) | IC50 (HL-60 [10]) [µM] | inhibition in vivo at 100 mg/kg (MV4-11 [11]) [%] | CI (MV4-11 [12]) | CI (MDA-MB-231 [13]) | IC50 [14] [µM] | koff [15] [s⁻¹] | IC50 (Histone deacetylase 1) [µM] |
| --- | --- | --- | --- | --- | --- | --- | --- | --- | --- | --- | --- | --- | --- | --- | --- | --- | --- |
| Cc1cc(C)c(CNC(=O)c2cc(-c3ccc(N4CCN(c5ncc(C(=O)Nc6ccccc6N)cn5)CC4)nc3)cc3c2cnn3C(C)C)c(=O)[nH]1 | 17.7 | – | – | – | – | – | – | – | – | – | – | – | – | – | – | – | – |
| CC[C@@H](C)n1cc(C)c2c(C(=O)NCc3c(C)cc(C)[nH]c3=O)cc(-c3ccc(N4CCNCC4)nc3)cc21 | – | 7.22 | 8.86 | 5.15 | 0.073 | 2.52 10^4/M/s | 15.2 | 0.91 | 0.65 | 0.8 | 12 | 52.7 | 0.38 | 1.2 | – | – | – |
| Cc1cc(C)c(CNC(=O)c2cc(-c3ccc(N4CCN(CCCCCCCCC(=O)NO)CC4)nc3)cc3c2cnn3C(C)C)c(=O)[nH]1 | – | 1.22 | 2.24 | 0.57 | 0.097 | – | 5.18 | – | – | – | 1.22 | – | – | – | 0.39 | 0.044 | 0.7 |
| CCN(c1cc(-c2ccc(N3CCN(CCCCCCCCC(=O)NO)CC3)nc2)cc(C(=O)NCc2c(C)cc(C)[nH]c2=O)c1C)C1CCOCC1 | – | 1.87 | 4.11 | 1.53 | 0.44 | – | 5.08 | – | – | – | 1.67 | – | – | – | 1.9 | 0.045 | 4.02 |
| Cc1cc(C)c(CNC(=O)c2cc(-c3ccc(N4CCN(C(C)C)CC4)nc3)cc3c2cnn3C(C)C)c(=O)[nH]1 | – | > 20 | > 20 | 11.1 | 0.021 | – | > 20 | 0.89 | 0.77 | 0.78 | > 20 | – | 0.43 | 1.6 | – | – | – |
| Cc1cc(C)c(CNC(=O)c2cc(-c3ccc(N4CCN(C(=O)CCCCCCC(=O)NO)CC4)nc3)cc3c2cnn3C(C)C)c(=O)[nH]1 | – | 1.73 | 7.04 | 1.15 | 0.084 | – | 8.74 | – | – | – | 8.41 | – | – | – | 0.082 | 0.023 | 0.94 |
| Cc1cc(C)c(CNC(=O)c2cc(-c3ccc(N4CCN(Cc5ccc(C(=O)NO)o5)CC4)nc3)cc3c2cnn3C(C)C)c(=O)[nH]1 | – | 15.2 | > 20 | 8.21 | 0.41 | – | > 20 | – | – | – | > 20 | – | – | – | 8.84 | 0.042 | > 10 |
